Measurements: US11192849B2, “Compounds, compositions, and methods for modulating ferroptosis and treating excitotoxic disorders” (THE TRUSTEES OF COLUMBIA UNIVERSITY IN THE CITY OF NEW YORK, priority 2013, dated 2021)
pEC50: −log10 of the molar value.

Experiments:
[1] = system: mice, IRI of the cremaster muscle; experiment: In vivo microscopy on the postischemic cremaster muscle; set-up: species or system mouse
Experimental: The surgical preparation of the cremaster muscle was performed as originally described by Baez with minor modifications (Traykova-Brauch et al., 2008; Mulay et al., 2013). Mice were anesthetized using a ketamine/xylazine mixture (100 mg/kg ketamine and 10 mg/kg xylazine), administrated by i.p. injection. The left femoral artery was cannulated in a retrograde manner for administration of microspheres and drugs. The right cremaster muscle was exposed through a ventral incision of the scrotum. The muscle was opened ventrally in a relatively avascular zone, using careful electrocautery to stop any bleeding, and spread over the transparent pedestal of a custom-made microscopic stage. Epididymis and testicle were detached from the cremaster muscle and placed into the abdominal cavity. Throughout the procedure as well as after surgical preparation during in vivo microscopy, the muscle was superfused with warm-buffered saline.
The setup for in vivo microscopy was centered around equipment for stroboscopic fluorescence epiillumination microscopy. […] Microscopy images were obtained with Olympus water immersion lenses (20×/numerical aperture (N.A.) 0.5 and 10×/N.A. 0.3) and recorded with an analog black-and-white charge-coupled device (CCD) video camera (Cohu 4920; Cohu) and an analog video recorder (AG-7350-E; Panasonic). […] For measurement of centerline blood flow velocity, green fluorescent microspheres (2-μm diameter; Molecular Probes) were injected via the femoral artery catheter, and their passage through the vessels of interest was recorded using the FITC filter cube under appropriate stroboscopic illumination (exposure, 1 ms; cycle time, 10 ms; length of the electromagnetic wave, 488 nm), integrating video images for sufficient time (>80 ms) to allow for the recording of several images of the same bead on one frame. […]

ERK phosphorylation = ERK phosphorylation Western blot in HT-1080 cells; assay type: cell-based, human
Experimental: Cells were trypsinized, pelleted, and washed once in PBS. Cells were lysed for 20 minutes in buffer containing: 50 mM HEPES pH 7.4, 40 mM NaCl, 2 mM EDTA, 0.5% Triton X-100, 1.5 mM sodium orthovanadate, 50 mM NaF, 10 mM sodium pyrophosphate, 10 mM sodium ß-glycerophosphate, and protease inhibitor tablet (Roche, Nutley, N.J.). Unlysed cells and debris were pelleted for 10 minutes at 10,000 rpm in a benchtop microcentrifuge at 4° C., and the supernatant was removed and mixed with 5×SDS loading buffer. Samples were separated by SDS-polyacrylamide gel electrophoresis. Western transfer was performed using the iBlot system (Invitrogen). Membrane was blocked for 1 hour in Licor Odyssey Blocking Buffer (LI-COR) and incubated in primary antibody overnight at 4° C. Following three 5-minute washes in Tris-buffered saline (pH 7.4) with 1% Tween-20 (TBS-T), membrane was incubated with secondary antibodies for 45 minutes in the dark. The membrane was washed again in TBST for three 5-minute washes with protection from light and scanned using the Odyssey Imaging System (LI-COR). Antibodies used were as follows: rabbit anti-phospho p42/44 MAPK (Cell Signaling Technology, #9101) and rabbit anti-p42/44 MAPK (Cell Signaling Technology, #9102). The secondary antibody was IR dye 800CW goat anti-rabbit IgG (LI-COR).

HT-1080 cells = experiment: LOC library screening and confirmation: suppression of erastin-induced death; assay type: cell-based; details: Homo sapiens, LOC library screening and confirmation studies, read-out: EC50, inhibition of erastin-induced ferroptosis
Experimental: The LOC library was screened over the course of several days. 384-well glass bottom assay plates (Corning) were seeded with 1,000 HT-1080 cells/well the day before the experiment. The day of the experiment, LOC mother plates were thawed at room temperature for 1 hour and spun at 1000 rpm for 1 minute prior to use. Using a BioMek liquid handing robot, 2 μL of compound solution from each LOC library mother plate was transferred to a 384 deep well “daughter” plate (Grenier) containing 148 μL of cell culture media. The cell culture media in each assay plate was then removed by flicking and, using a BioMek FX, replaced with 36 μL of growth media containing erastin (5 μM final). To this was added 4 μL of the drug solution from the daughter plate, for a final screening concentration of 5.3 μg/mL for each LOC library compound. 4 wells containing DMSO alone (no erastin), 4 wells containing 100 μM DFO alone (no erastin), 4 wells containing erastin plus DMSO, and 4 wells containing erastin plus 100 μM DFO (positive control) were included as controls on each plate. Each drug daughter plate was aliquoted separately to duplicate assay plates. Plates were then spun briefly (1000 rpm, 5 seconds) and returned to the 37° C. tissue culture incubator. 24 hours later, cell viability was assessed by Alamar Blue as described above.
Candidate hits from the LOC library screen were identified. […]

Question: `CCOC(=O)c1ccc(NC2CCCCC2)c(N)c1` [SRS8-28 (Fer-1), ethyl 3-amino-4-(cyclohexylamino)benzoate] was tested. Which leukocyte adherence ([1]; 1 h and 2 h after onset of reperfusion) did it give?
Answer: Its leukocyte adherence is “remains unchanged”.

Question: What about the leukocyte transmigration ([1]; ferrostatin-1 2 mg/kg i.p.) of the same compound?
Answer: Its leukocyte transmigration is “Significantly reduced”.

Question: What about the leukocyte rolling ([1]; within the first hour after reperfusion) of the same compound?
Answer: The leukocyte rolling was “is affected”.

Question: And the ERK phosphorylation (ERK phosphorylation)?
Answer: Its ERK phosphorylation is “did not inhibit ERK phosphorylation”.

Question: And the pEC50 (HT-1080 cells)?
Answer: The pEC50 was 7.22.
